Data on three molecules can be found in ChEMBL document CHEMBL1649189, “Avian Aspergillus fumigatus strains resistant to both itraconazole and voriconazole” (2009).

What all share (format): functional
Experiment [1] deals with Aspergillus fumigatus. As to the kind of experiment: Antifungal activity against Aspergillus fumigatus isolate by broth microdilution method.
For experiment [2], the system named is Aspergillus fumigatus. Description: Antifungal activity against voriconalzole-resistant Aspergillus fumigatus isolate by broth microdilution method.
Experiment [3] relates to Aspergillus fumigatus. As to the kind of experiment: Antifungal activity against itraconazole-resistant Aspergillus fumigatus isolate by broth microdilution method.

In brackets after ≈: the same amount, converted by molar mass.

Regarding `C[C@@H]1[C@H](O)[C@@H](C)/C=C/C=C/C=C/C=C/C=C/C=C/C=C/[C@H](O[C@@H]2O[C@H](C)[C@@H](O)[C@H](N)[C@@H]2O)C[C@@H]2O[C@](O)(C[C@@H](O)C[C@@H](O)[C@H](O)CC[C@@H](O)C[C@@H](O)CC(=O)O[C@H]1C)C[C@H](O)[C@H]2C(=O)O` [AMPHOTERICIN B], in the experiment on Aspergillus fumigatus [1], the MIC50 was 2 µg/mL (≈ 2.16 µM) and the MIC90 is 2 µg/mL (≈ 2.16 µM).
The molecule `CCC(C)n1ncn(-c2ccc(N3CCN(c4ccc(OCC5COC(Cn6cncn6)(c6ccc(Cl)cc6Cl)O5)cc4)CC3)cc2)c1=O` (stereo not drawn) [ITRACONAZOLE] gave an MIC in the experiment with Aspergillus fumigatus [2] of more than 16 µg/mL. In the experiment on Aspergillus fumigatus [1], the MIC50 came to 0.5 µg/mL (≈ 0.709 µM) and the MIC90 was found to be 0.5 µg/mL (≈ 0.709 µM).
In the experiment with Aspergillus fumigatus [1], `C[C@@H](c1ncncc1F)[C@](O)(Cn1cncn1)c1ccc(F)cc1F` [VORICONAZOLE] showed an MIC50 of 0.25 µg/mL (≈ 0.716 µM) and an MIC90 of 0.5 µg/mL (≈ 1.43 µM). The molecule further yielded an MIC against Aspergillus fumigatus [3] of 4 µg/mL (≈ 11.5 µM).
